From publication PMC10376059, “New NADPH Oxidase 2 Inhibitors Display Potent Activity against Oxidative Stress by Targeting p22^phox-p47^phox Interactions” (Antioxidants, 2023) come the findings set out here.

One data set deals with T1, p47^phox (Homo sapiens, UniProt P14598).
T1 construct: we evaluated p47^phox translocation from the cytosol to the membrane in HL-60 differentiated cells; endogenous in cells; host or cells: neutrophil-differentiated HL-60 cells treated with PMA; membrane and cytosolic fractions obtained by cryo-fracture
T1 sequence (P14598 1-390): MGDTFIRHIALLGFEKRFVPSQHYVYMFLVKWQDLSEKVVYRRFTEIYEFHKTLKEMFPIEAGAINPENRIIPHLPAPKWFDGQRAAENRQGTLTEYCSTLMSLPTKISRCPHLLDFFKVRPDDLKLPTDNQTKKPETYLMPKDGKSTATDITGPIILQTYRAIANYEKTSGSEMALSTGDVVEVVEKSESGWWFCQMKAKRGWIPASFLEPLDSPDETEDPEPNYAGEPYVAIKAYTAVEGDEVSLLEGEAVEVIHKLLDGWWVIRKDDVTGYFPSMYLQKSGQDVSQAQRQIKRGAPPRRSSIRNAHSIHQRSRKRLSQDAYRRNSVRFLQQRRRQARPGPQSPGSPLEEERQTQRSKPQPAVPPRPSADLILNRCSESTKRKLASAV
The data set can be described thus: p47phox translocation from cytosol to membrane (Western blot) in PMA-stimulated HL-60 differentiated cells. In kind it is cell-based. To be noted: PMA 0.8 µM, 50 μM. On the procedure:
Neutrophil-differentiated HL-60 cells (2 × 10^6 cells/mL) were incubated at 37 °C in a humid atmosphere with 5% CO2 and 50 μM of the different acrylonitrile compounds, then PMA 0.8 μM was added and incubated for 1 h to induce the activation of the enzyme NADPH oxidase. As a positive inhibition control, VAS2870 (20 μM) was used. Another two controls were performed: one with cells activated by PMA in the presence of DMSO, and the other (NA, non-activated) with cells in the absence of PMA and the acrylonitrile compounds. In 15 mL conical tubes, 5 mL of cell suspension from each treatment and control condition was transferred at 2 × 10^6 cells/mL and centrifuged at 1000 rpm at 4 °C for 10 min. The supernatant was then discarded, and each pellet was re-suspended in 2 mL of a 4% PBS solution with 2 mM EGTA and 0.25 mM PMSF frozen at −80 °C for 10 min. Then each pellet was thawed on ice. After this, the cell suspension was passed through a glass tissue homogenizer (Deltalab®, I.C.T, S.L, La Rioja, Spain) 20 times. The freezing-thawing and homogenization processes were repeated three times. Finally, the homogenate was centrifuged at 15,000 rpm at 4 °C for 15 min. The supernatant (cytosolic fraction) was removed from the pellet (membranes were prepared). A fraction was removed for the determination of total proteins, and the remainder was stored at −80 °C for further analysis. […]

A short description of a further data set: MTT cytotoxicity assay. In kind it is cell-based, human. To be noted: human; neutrophil-differentiated HL-60 cells, 72 h, 100 µM. On the procedure:
To verify the cytotoxicity of the acrylonitrile derivatives, the MTT reduction method was performed. Briefly, HL-60 cells were seeded in a flat-bottomed 96-well plate at a density of 10,000 cells per well. […] In a second series of experiments, cells were incubated under the same conditions but for 72 h. Etoposide was used as a positive control. Ten μL of MTT was added at a final concentration of 0.5 mg/mL, incubated at 37 °C for 4 h, and then solubilized with 10% SDS in 0.1 mM HCl and incubated overnight at 37 °C. Finally, a blue-colored compound (formazan) formation was measured at 570 nm in a multiplate reader (StatFax 4200, Awareness Technology, Inc., Palm City, FL, USA). The viability percentage was obtained as follows: Viability % = [treated cells DO × 100]/[DO cells control].
(In general: Tetrazolium assays rely on reduction of a dye to a coloured formazan, in cell work by metabolically active cells.)

Each structure is given as a SMILES string.

The term viability denotes the share of living cells, or the viability signal relative to a control. Read a high viability as less harm to the cells. For `N#C/C(=C\c1cc(-c2ccccc2)on1)C(=O)c1c[nH]c2ccccc12` [Compound C6], on p47^phox, the “translocation of p47phox to the membrane (in words)” value was “significantly reduced the translocation of p47^phox to the membrane”. In addition, the viability at 72 h, 100 µM in the data set “MTT cytotoxicity assay” is about 5%.
